Data reported in US20240199584A1, “KRAS INHIBITORS” (Bristol-Myers Squibb Company, priority 2022, published 2024).
pIC50: −log10 of the molar value. Where two headings read alike, the source gives them in different places.

Legend:
KRAS G12V = molecular target: T1, KRAS G12V (Homo sapiens, UniProt P01116, G12V); assay: Cellular KRAS:RAF Disruption Assay (NanoBRET), KRAS G12V; assay type: cell-based; details: HEK293 T cells co-expressing RAF1 and KRAS G12V, 24 hours; read-out: RAS::RAF binding via NanoBRET IC50, KRAS G12V
T1 construct: expressed in transfected cells
T1 sequence (P01116 1-188 isoform P01116-2 G12V): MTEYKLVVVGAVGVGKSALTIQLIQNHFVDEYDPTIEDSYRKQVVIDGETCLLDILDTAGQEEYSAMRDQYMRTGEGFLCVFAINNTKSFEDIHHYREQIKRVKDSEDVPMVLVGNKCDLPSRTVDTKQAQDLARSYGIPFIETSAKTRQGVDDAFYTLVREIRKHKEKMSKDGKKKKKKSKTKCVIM
Experimental: (§1) Cellular KRAS:RAF Disruption Assay
(§2) Stable cell lines (HEK293 T) were generated to co-express RAF1 and mutant or wild type KRAS, as indicated, using the BiBRET vector (Promega). Engineered cell lines were suspended in media (OptiMEM, […]), plated in 384-well plates (8000 cells/well), and allowed to rest for 1.5 hours. Cells were treated with compounds for 24 hours, and NanoBRET NanoGlo substrate (Promega) was added per the manufacturer's instructions.

KRAS G13D = molecular target: T2, KRAS G13D (Homo sapiens, UniProt P01116, G13D); assay: Cellular KRAS:RAF Disruption Assay (NanoBRET), KRAS G13D; assay type: cell-based; details: HEK293 T cells co-expressing RAF1 and KRAS G13D, 24 hours; read-out: RAS::RAF binding via NanoBRET IC50, KRAS G13D
T2 construct: expressed in transfected cells
T2 sequence (P01116 1-188 isoform P01116-2 G13D): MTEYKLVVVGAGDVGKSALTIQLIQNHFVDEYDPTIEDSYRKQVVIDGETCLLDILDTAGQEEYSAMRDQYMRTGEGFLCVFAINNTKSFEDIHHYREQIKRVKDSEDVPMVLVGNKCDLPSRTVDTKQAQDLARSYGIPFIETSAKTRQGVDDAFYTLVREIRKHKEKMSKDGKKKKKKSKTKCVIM
Experimental: as §1, §2

KRAS Q61H = molecular target: T3, KRAS Q61H (Homo sapiens, UniProt P01116, Q61H); assay: Cellular KRAS:RAF Disruption Assay (NanoBRET), KRAS Q61H; assay type: cell-based; details: HEK293 T cells co-expressing RAF1 and KRAS Q61H, 24 hours; read-out: RAS::RAF binding via NanoBRET IC50, KRAS Q61H
T3 construct: expressed in transfected cells
T3 sequence (P01116 1-188 isoform P01116-2 Q61H): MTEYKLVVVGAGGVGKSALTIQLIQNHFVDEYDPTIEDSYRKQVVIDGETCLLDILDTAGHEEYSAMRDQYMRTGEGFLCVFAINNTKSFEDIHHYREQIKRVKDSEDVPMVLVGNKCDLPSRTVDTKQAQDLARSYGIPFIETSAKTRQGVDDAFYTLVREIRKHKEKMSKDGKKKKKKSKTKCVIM
Experimental: as §1, §2

KRAS G12S = molecular target: T4, KRAS G12S (Homo sapiens, UniProt P01116, G12S); assay: Cellular KRAS:RAF Disruption Assay (NanoBRET), KRAS G12S; assay type: cell-based; details: HEK293 T cells co-expressing RAF1 and KRAS G12S, 24 hours; read-out: RAS::RAF binding via NanoBRET IC50, KRAS G12S
T4 construct: expressed in transfected cells
T4 sequence (P01116 1-188 isoform P01116-2 G12S): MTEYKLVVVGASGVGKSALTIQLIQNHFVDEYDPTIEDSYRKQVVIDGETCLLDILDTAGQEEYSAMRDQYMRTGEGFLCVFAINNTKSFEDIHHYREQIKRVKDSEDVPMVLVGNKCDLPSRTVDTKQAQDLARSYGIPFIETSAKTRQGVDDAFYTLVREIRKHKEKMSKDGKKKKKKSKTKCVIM
Experimental: as §1, §2

KRAS G12R = molecular target: T5, KRAS G12R (Homo sapiens, UniProt P01116, G12R); assay: Cellular KRAS:RAF Disruption Assay (NanoBRET), KRAS G12R; assay type: cell-based; details: HEK293 T cells co-expressing RAF1 and KRAS G12R, 24 hours; read-out: RAS::RAF binding via NanoBRET IC50, KRAS G12R
T5 construct: expressed in transfected cells
T5 sequence (P01116 1-188 isoform P01116-2 G12R): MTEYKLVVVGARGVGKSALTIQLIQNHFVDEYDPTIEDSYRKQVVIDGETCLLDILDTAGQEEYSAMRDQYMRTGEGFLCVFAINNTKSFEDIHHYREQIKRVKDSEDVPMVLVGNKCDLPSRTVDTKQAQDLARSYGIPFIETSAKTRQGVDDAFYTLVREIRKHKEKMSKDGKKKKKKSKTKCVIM
Experimental: as §1, §2

KRAS G12A = molecular target: T6, KRAS G12A (Homo sapiens, UniProt P01116, G12A); assay: Cellular KRAS:RAF Disruption Assay (NanoBRET), KRAS G12A; assay type: cell-based; details: HEK293 T cells co-expressing RAF1 and KRAS G12A, 24 hours; read-out: RAS::RAF binding via NanoBRET IC50, KRAS G12A
T6 construct: expressed in transfected cells
T6 sequence (P01116 1-188 isoform P01116-2 G12A): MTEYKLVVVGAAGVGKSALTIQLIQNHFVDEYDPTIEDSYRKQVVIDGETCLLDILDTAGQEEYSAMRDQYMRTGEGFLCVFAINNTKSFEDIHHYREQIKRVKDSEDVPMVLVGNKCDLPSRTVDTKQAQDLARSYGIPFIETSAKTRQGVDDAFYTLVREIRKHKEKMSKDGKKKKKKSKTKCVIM
Experimental: as §1, §2

KRAS G12C = molecular target: T7, KRAS G12C (Homo sapiens, UniProt P01116, G12C); assay: Cellular KRAS:RAF Disruption Assay (NanoBRET), KRAS G12C; assay type: cell-based; details: HEK293 T cells co-expressing RAF1 and KRAS G12C, 24 hours; read-out: RAS::RAF binding via NanoBRET IC50, KRAS G12C
T7 construct: expressed in transfected cells
T7 sequence (P01116 1-188 isoform P01116-2 G12C): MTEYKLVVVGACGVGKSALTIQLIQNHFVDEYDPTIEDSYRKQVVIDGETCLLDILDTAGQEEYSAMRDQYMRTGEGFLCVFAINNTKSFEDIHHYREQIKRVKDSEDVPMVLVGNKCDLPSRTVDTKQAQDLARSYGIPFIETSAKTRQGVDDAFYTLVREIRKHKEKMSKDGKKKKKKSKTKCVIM
Experimental: as §1, §2

KRAS Q61R = molecular target: T8, KRAS Q61R (Homo sapiens, UniProt P01116, Q61R); assay: Cellular KRAS:RAF Disruption Assay (NanoBRET), KRAS Q61R; assay type: cell-based; details: HEK293 T cells co-expressing RAF1 and KRAS Q61R, 24 hours; read-out: RAS::RAF binding via NanoBRET IC50, KRAS Q61R
T8 construct: expressed in transfected cells
T8 sequence (P01116 1-188 isoform P01116-2 Q61R): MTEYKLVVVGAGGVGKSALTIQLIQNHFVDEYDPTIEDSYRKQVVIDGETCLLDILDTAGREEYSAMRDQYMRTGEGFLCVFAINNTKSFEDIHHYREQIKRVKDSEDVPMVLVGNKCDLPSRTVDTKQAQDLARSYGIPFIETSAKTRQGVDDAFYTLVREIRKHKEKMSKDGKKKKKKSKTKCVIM
Experimental: as §1, §2

KRAS WT = molecular target: T9, KRAS WT (Homo sapiens, UniProt P01116); assay: Cellular KRAS:RAF Disruption Assay (NanoBRET), KRAS WT; assay type: cell-based; details: HEK293 T cells co-expressing RAF1 and wild type KRAS, 24 hours; read-out: RAS::RAF binding via NanoBRET IC50, KRAS WT
T9 construct: expressed in transfected cells
T9 sequence (P01116 1-188 isoform P01116-2): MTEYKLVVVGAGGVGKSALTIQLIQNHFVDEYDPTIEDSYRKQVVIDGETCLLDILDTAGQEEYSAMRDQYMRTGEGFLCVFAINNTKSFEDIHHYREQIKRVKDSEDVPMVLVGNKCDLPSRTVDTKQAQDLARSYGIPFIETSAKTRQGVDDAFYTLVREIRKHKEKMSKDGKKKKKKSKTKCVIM
Experimental: as §1, §2

KRAS A146T = molecular target: T10, KRAS A146T (Homo sapiens, UniProt P01116, A146T); assay: Cellular KRAS:RAF Disruption Assay (NanoBRET), KRAS A146T; assay type: cell-based; details: HEK293 T cells co-expressing RAF1 and KRAS A146T, 24 hours; read-out: RAS::RAF binding via NanoBRET IC50, KRAS A146T
T10 construct: expressed in transfected cells
T10 sequence (P01116 1-188 isoform P01116-2 A146T): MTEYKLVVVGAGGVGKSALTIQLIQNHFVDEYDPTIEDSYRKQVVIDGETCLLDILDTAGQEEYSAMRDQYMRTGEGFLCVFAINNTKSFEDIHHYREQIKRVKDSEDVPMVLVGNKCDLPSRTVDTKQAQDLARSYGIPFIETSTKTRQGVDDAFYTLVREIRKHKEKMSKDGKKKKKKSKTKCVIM
Experimental: as §1, §2

KRAS G12D [1] = molecular target: T11, KRAS G12D (Homo sapiens, UniProt P01116, G12D); assay: biochemical
T11 sequence (P01116 1-188 isoform P01116-2 G12D): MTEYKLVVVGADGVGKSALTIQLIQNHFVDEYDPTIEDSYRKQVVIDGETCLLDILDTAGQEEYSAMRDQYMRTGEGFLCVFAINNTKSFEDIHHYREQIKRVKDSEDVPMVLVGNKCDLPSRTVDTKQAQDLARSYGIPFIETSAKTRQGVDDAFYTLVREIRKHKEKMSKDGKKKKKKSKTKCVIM

KRAS G12D [2] = molecular target: T11, KRAS G12D; assay: biochemical; remark: listed apart in the source

pIC50 (KRAS G12V)	pIC50 (KRAS G13D)	pIC50 (KRAS Q61H)	pIC50 (KRAS G12S)	pIC50 (KRAS G12R)	pIC50 (KRAS G12A)	pIC50 (KRAS G12C)	pIC50 (KRAS Q61R)	pIC50 (KRAS WT)	pIC50 (KRAS A146T)	pIC50 (KRAS G12D [1])	pIC50 (KRAS G12D [2])	SMILES
6.70	7.35	7.00	7.54	5.28	7.80	7.60	< 5.00	8.22	7.12	–	–	C#Cc1c(F)ccc2cc(O)cc(-c3ncc4c(N5CCOCC5)nc(OC[C@@]56CCCN5C[C@H](F)C6)nc4c3F)c12 [Example 1-1, 4-(2-{[(2R,7aS)-2-fluoro-hexahydro-1H-pyrrolizin-7a-yl]methoxy}-8-fluoro-4-(morpholin-4-yl)pyrido[4,3-d]pyrimidin-7-yl)-5-ethynyl-6-fluoronaphthalen-2-ol]
7.72	8.30	8.15	8.40	6.88	8.70	8.52	5.84	8.70	7.80	> 8.70	> 8.70	C#Cc1c(F)ccc2cc(O)cc(-c3ncc4c(N5CCCOCC5)nc(OC[C@]56CCC[C@H]5N(C)CCC6)nc4c3F)c12 [Example 1-3, 4-(2-{[(4aS,7aR)-1-methyl-octahydro-1H-cyclopenta[b]pyridin-4a-yl]methoxy}-8-fluoro-4-(1,4-oxazepan-4-yl)pyrido[4,3-d]pyrimidin-7-yl)-5-ethynyl-6-fluoronaphthalen-2-ol]
7.49	7.66	7.51	7.96	5.37	8.00	7.92	< 5.00	7.89	7.40	–	–	C#Cc1c(F)ccc2cc(O)cc(-c3ncc4c(N5C6COCC5C6)nc(OC[C@@]56CCCN5C[C@H](F)C6)nc4c3F)c12 [Example 1-35, 4-(2-{[(2R,7aS)-2-fluoro-hexahydro-1H-pyrrolizin-7a-yl]methoxy}-8-fluoro-4-{3-oxa-6-azabicyclo[3.1.1]heptan-6-yl}pyrido[4,3-d]pyrimidin-7-yl)-5-ethynyl-6-fluoronaphthalen-2-ol]
6.71	–	–	–	–	7.71	7.38	–	7.92	–	–	–	C#Cc1c(F)ccc2cc(O)cc(-c3ncc4c(N5CC6COC(C6)C5)nc(OC[C@@]56CCCN5C[C@H](F)C6)nc4c3F)c12 (stereo partly drawn) [Example 1-90, 4-(2-{[(2R,7aS)-2-fluoro-hexahydro-1H-pyrrolizin-7a-yl]methoxy}-8-fluoro-4-{6-oxa-3-azabicyclo [3.2.1]octan-3-yl}pyrido[4,3-d]pyrimidin-7-yl)-5-ethynyl-6-fluoronaphthalen-2-ol]
6.93	–	–	–	–	8.34	7.89	–	7.91	–	–	–	C#Cc1c(F)ccc2cc(O)cc(-c3ncc4c(N5CCOC6CC65)nc(OC[C@@]56CCCN5C[C@H](F)C6)nc4c3F)c12 (stereo partly drawn) [Example 1-100, 4-(2-{[(2R,7aS)-2-fluoro-hexahydro-1H-pyrrolizin-7a-yl]methoxy}-8-fluoro-4-{2-oxa-5-azabicyclo[4.1.0]heptan-5-yl}pyrido[4,3-d]pyrimidin-7-yl)-5-ethynyl-6-fluoronaphthalen-2-ol]
6.88	–	–	–	–	8.28	8.01	–	8.01	–	–	–	C#Cc1c(F)ccc2cc(O)cc(-c3ncc4c(N5CCOCC(F)(F)C5)nc(OC[C@]56CCC[C@H]5N(C)CCC6)nc4c3F)c12 [Example 1-107, 4-(2-{[(4aS,7aR)-1-methyl-octahydro-1H-cyclopenta[b]pyridin-4a-yl]methoxy}-4-(6,6-difluoro-1,4-oxazepan-4-yl)-8-fluoropyrido[4,3-d]pyrimidin-7-yl)-5-ethynyl-6-fluoronaphthalen-2-ol]
6.85	–	–	–	–	7.88	7.73	–	7.76	–	–	–	C#Cc1c(F)ccc2cc(O)cc(-c3ncc4c(N5CCOCC(C)(O)C5)nc(OC[C@]56CCC[C@H]5N(C)CCC6)nc4c3F)c12 (stereo partly drawn) [Example 1-108, 4-(2-{[(4aS,7aR)-1-methyl-octahydro-1H-cyclopenta[b]pyridin-4a-yl]methoxy}-7-(8-ethynyl-7-fluoro-3-hydroxynaphthalen-1-yl)-8-fluoropyrido[4,3-d]pyrimidin-4-yl)-6-methyl-1,4-oxazepan-6-ol]
7.59	8.10	7.80	8.22	6.69	8.52	8.30	5.64	8.70	7.77	–	–	C#Cc1c(F)ccc2cc(O)cc(-c3ccc4c(N5CCCOCC5)nc(OC[C@@]56CCCN5C[C@H](F)C6)nc4c3F)c12 [Example 2-2, 4-(2-{[(2R,7aS)-2-fluoro-hexahydro-1H-pyrrolizin-7a-yl]methoxy}-8-fluoro-4-(1,4-oxazepan-4-yl)quinazolin-7-yl)-5-ethynyl-6-fluoronaphthalen-2-ol]
6.76	7.31	7.14	7.41	5.97	7.74	7.62	< 5.30	7.96	7.09	–	–	C#Cc1c(F)ccc2cc(O)cc(-c3ccc4c(N5CCCOCC5)nc(OC[C@]56CCC[C@H]5N(C)CCC6)nc4c3F)c12 [Example 2-3, 4-(2-{[(4aS,7aR)-1-methyl-octahydro-1H-cyclopenta[b]pyridin-4a-yl]methoxy}-8-fluoro-4-(1,4-oxazepan-4-yl)quinazolin-7-yl)-5-ethynyl-6-fluoronaphthalen-2-ol]
7.39	–	–	–	–	8.05	7.89	–	8.44	–	–	–	C#Cc1c(F)ccc2cc(O)cc(-c3ccc4c(N5CCCC(C)(O)C5)nc(OC[C@]56CCC[C@H]5N(C)CCC6)nc4c3F)c12 (stereo partly drawn) [Example 2-72, 1-(2-{[(4aS,7aR)-1-methyl-octahydro-1H-cyclopenta[b]pyridin-4a-yl]methoxy}-7-(8-ethynyl-7-fluoro-3-hydroxynaphthalen-1-yl)-8-fluoroquinazolin-4-yl)-3-methylpiperidin-3-ol]
5.60	–	–	–	–	6.06	6.08	–	6.62	–	–	–	C#Cc1c(F)ccc2cc(O)cc(-c3ccc4c(N5C[C@@H]6C[C@H]5C(=O)N6)nc(OC[C@]56CCC[C@H]5N(C)CCC6)nc4c3F)c12 [Example 5-1, (1S,4S)-5-(2-{[(4aS,7aR)-1-methyl-octahydro-1H-cyclopenta[b]pyridin-4a-yl]methoxy}-7-(8-ethynyl-7-fluoro-3-hydroxynaphthalen-1-yl)-8-fluoroquinazolin-4-yl)-2,5-diazabicyclo[2.2.1]heptan-3-one]
6.17	6.70	6.32	6.50	5.12	6.84	6.44	< 5.00	7.40	6.50	–	–	C#Cc1c(F)ccc2cc(O)cc(-c3ccc4c(N5CC6CCC(C5)N6C(=O)C(F)(F)F)nc(OC[C@@]56CCCN5C[C@H](F)C6)nc4c3F)c12 [Example 7-3, 1-[3-(2-{[(2R,7aS)-2-fluoro-hexahydro-1H-pyrrolizin-7a-yl]methoxy}-7-(8-ethynyl-7-fluoro-3-hydroxynaphthalen-1-yl)-8-fluoroquinazolin-4-yl)-3,8-diazabicyclo[3.2.1]octan-8-yl]-2,2,2-trifluoroethan-1-one]
